Measured values reported in ChEMBL document CHEMBL1152735, “Synthesis and antiprotozoal activity of novel 1-methylbenzimidazole derivatives” (Bioorg Med Chem, 2009).

Columns and labels:
[1] = system: Trichomonas vaginalis; test: Antiprotozoal activity against Trichomonas vaginalis GT3 trophozoites after 48 hrs; type: functional, organism-based; details: GT3, 48 h
[2] = system: Giardia intestinalis; test: Antiprotozoal activity against Giardia intestinalis IMSS:0981:1 trophozoites after 48 hrs; type: functional, organism-based; details: Giardia duodenalis

| SMILES | IC50 [1] [nM] | IC50 [2] [nM] |
| --- | --- | --- |
| CC(=O)c1nc2ccc(Cl)cc2n1C | 228 | 67 |
| CC(=O)c1nc2ccccc2n1C | 210 | 86.1 |
| Cn1c(C(N)=O)nc2ccccc21 | 166 | 94.2 |
| CC(O)c1nc2ccccc2n1C (stereo not given) | 167 | 68.1 |
| Cn1c(C(N)=O)nc2cc(Cl)c(Cl)cc21 | 134 | 462 |
| CNC(=O)c1nc2cc(Cl)ccc2n1C | 358 | 358 |
| CN(C)C(=O)c1nc2cc(Cl)ccc2n1C | 210 | 244 |
| Cn1c(C(N)=O)nc2cc(Cl)ccc21 | 186 | 234 |
| CN(C)C(=O)c1nc2ccc(Cl)cc2n1C | 238 | 40 |
| CNC(=O)c1nc2cc(Cl)c(Cl)cc2n1C | 225 | 151 |
| CN(C)C(=O)c1nc2ccccc2n1C | 430 | 512 |
| CCCSc1ccc2[nH]c(NC(=O)OC)nc2c1 [ALBENDAZOLE] | 1590 |  |
| Cc1ncc([N+](=O)[O-])n1CCO [METRONIDAZOLE] | 236 |  |

The next lines start with the values.

| IC50 [1] [nM] | IC50 [2] [nM] | SMILES |
| --- | --- | --- |
| 40.7 | 20.3 | CC(O)c1nc2cc(Cl)c(Cl)cc2n1C (stereo not given) |
| 109 | 76.3 | Cn1c(C(N)=O)nc2ccc(Cl)cc21 |
| 109 | 71.2 | CC(O)c1nc2ccc(Cl)cc2n1C (stereo not given) |
| 85.7 | 68.6 | CCOC(=O)c1nc2ccccc2n1C |
| 63.7 | 34.9 | CC(=O)c1nc2cc(Cl)c(Cl)cc2n1C |
| 108 | 60.8 | CNC(=O)c1nc2ccccc2n1C |
| 105 | 71.5 | CNC(=O)c1nc2ccc(Cl)cc2n1C |
| 18.9 | 48.2 | CCOC(=O)c1nc2ccc(Cl)cc2n1C |
| 75.3 | 73.5 | CN(C)C(=O)c1nc2cc(Cl)c(Cl)cc2n1C |
| 27.2 | 39.8 | CCOC(=O)c1nc2cc(Cl)ccc2n1C |
| 29.3 | 27.5 | CCOC(=O)c1nc2cc(Cl)c(Cl)cc2n1C |
| 94.9 | 37.9 | CC(O)c1nc2cc(Cl)ccc2n1C (stereo not given) |
| 132 | 50.3 | CC(=O)c1nc2cc(Cl)ccc2n1C |
